Assay results from the COVID Moonshot data (paper PMC7615835).
Where “and” joins values, the source holds several entries; their conditions need not be identical. Equal entries are not always repeated.

target: SARS-CoV-2 Main Protease (SARS-CoV-2) (UniProt P0DTD1)

Compared with `COc1ccc2c(c1)CN(C(=O)CCl)C(c1ccccc1)C2` (centres undefined), `CNS(=O)(=O)N1CCc2ccc(Cl)cc2C1C(=O)Nc1cncc2ccccc12` (centres undefined) is 2.4-fold lower in IC50: 3.74 µM for the first, 1.55 µM for the second.

First: COc1ncncc1C(C(=O)NCCc1cccc(F)c1)N(C(=O)c1cocn1)c1ccc(C(C)(C)C)cc1 (centres undefined)
Second: CC(C)(c1ccc(N(C(=O)c2cocn2)C(C(=O)NCCc2cccc(F)c2)c2cccnc2)cc1)S(C)(=O)=O (centres undefined)
The IC50 of the first is 8-fold lower: 8.43 µM for the first, 67.8 µM for the second. The first is the more potent here.

`Cc1ccc(Br)nc1C(=O)NC(C)c1nnc2c(=O)[nH]ccn12` (centres undefined) and `CC(NC(=O)Nc1ccn2ccnc2c1)c1ccc2[nH]c(=O)oc2c1` (centres undefined) cannot be ordered by IC50: > 99.5 µM for the first, > 99.5 µM for the second.

Compared with `O=C(Oc1cncc2ccccc12)C1CCOc2ccc(Cl)cc21` (centres undefined), `O=C(Nc1cncc2ccccc12)[C@@H]1COc2ccc(Cl)cc2C1` (stereo in doubt) is higher in IC50: 0.522 µM for the first, > 99.5 µM for the second. The first is the more potent here.

`O=C(Cc1cc(Cl)cc(Nc2cc(C(F)(F)F)ccn2)c1)Nc1cncc2ccccc12` and `O=C(Cc1cc(Cl)cc(Nc2ccc(F)nc2Br)c1)Nc1cncc2ccccc12` are within 1.5-fold of each other in IC50: 1.84 µM for the first, 1.86 µM for the second.

`O=C(Cc1cc(Cl)cc(N2CCN(c3nsc4ccccc34)CC2)c1)Nc1cncc2ccccc12` and `O=C(Cc1cc(Cl)cc(N2CCN(c3ccccc3[N+](=O)[O-])CC2)c1)Nc1cncc2ccccc12` are within 1.5-fold of each other in IC50: 3.34 µM for the first, 4.01 µM for the second.

`O=C(Cc1cc(Cl)cc(Nc2ccc(OC(F)F)cc2)c1)Nc1cncc2ccccc12` and `CCN(CC)S(=O)(=O)c1ccc(Nc2cc(Cl)cc(CC(=O)Nc3cncc4ccccc34)c2)cc1` are within 1.5-fold of each other in IC50: 1.9 µM for the first, 2.15 µM for the second.

First: CC(C)(C)c1ccc(N(C(=O)c2cn(CCN3CCOCC3)nn2)C(C(=O)NCCc2cccc(F)c2)c2cccnc2)cc1 (centres undefined)
Second: CC(C)(C)c1ccc(N(C(=O)c2sc(N3CCOCC3)nc2Cl)C(C(=O)NCCc2cccc(F)c2)c2cccnc2)cc1 (centres undefined)
The IC50 of the first is lower: 10.5 µM for the first, > 99.5 µM for the second.

`CCCc1cc2c(cc1S(=O)(=O)N1CCN(c3ccccc3OC)CC1)OCO2` and `Cc1nc(N2CCN(S(=O)(=O)c3ccccc3)CC2)sc1S(N)(=O)=O` cannot be ordered by IC50: > 99.5 µM for the first, > 99.5 µM for the second.

Going from `Cc1ccc(S(=O)(=O)CNC(=O)C(c2cccnc2)N(C(=O)c2cocn2)c2ccc(C(C)(C)C)cc2)cc1` (centres undefined) to `CCOC(=O)CCNC(=O)C(c1cccnc1)N(C(=O)c1cocn1)c1ccc(C(C)(C)C)cc1` (centres undefined), the IC50 falls from 62.9 µM to 2.8 µM (22-fold).

Compared with `O=C(C[C@@]1(C(=O)Nc2cncc3ccccc23)CCOc2ccc(Cl)cc21)N1CCN(C2CCOC2)CC1` (stereo in doubt), `O=C(Nc1cncc2ccccc12)C1CN(S(=O)(=O)N2CCCC2CO)Cc2ccc(Cl)cc21` (centres undefined) is 41-fold lower in IC50: 46.5 µM for the first, 1.14 µM for the second.

Compared with `O=C(Nc1cncc2cccc(Cl)c12)C12CC(C1)Oc1ccc(Cl)cc12`, `Cc1cc(F)cc2cncc(NC(=O)Cc3cccc(Cl)c3)c12` is 88-fold lower in IC50: 75.1 µM for the first, 0.851 µM for the second. The second is the more potent here.

First: N#Cc1cccc(NC(=O)[C@@H]2CN(C(=O)CCl)CCN2S(=O)(=O)c2ccsc2)c1 (stereo in doubt)
Second: N#Cc1ccc2c(NC(=O)Cc3cccc(Cl)c3)cncc2c1
The IC50 of the first is 22-fold lower: 0.416 µM for the first, 9 µM for the second. The first is the more potent here.

Compared with `CC(C)(C)c1cnc(N(C(=O)c2cocn2)C(C(=O)NCCc2cccc(F)c2)c2cccnc2)o1` (centres undefined), `CC(C)(C)c1ccc(N(C(=O)c2cnon2)C(C(=O)NCCc2cccc(F)c2)c2cccnc2)cc1` (centres undefined) is 3.9-fold lower in IC50: 32.4 µM for the first, 8.41 µM for the second. The second is the more potent here.

Compared with `N#CC1(CS(=O)(=O)N2Cc3ccc(Cl)cc3C3(CCN(c4cncc5ccc(F)cc45)C3=O)C2)CC1` (centres undefined), `O=C(CN1CC(C(=O)Nc2cncc3ccccc23)c2cc(Cl)ccc2C1=O)NC1CCC1` (centres undefined) is 6.4-fold lower in IC50: 0.828 µM for the first, 0.129 µM for the second. The second is the more potent here.

`O=C(NCCc1cccc(F)c1)C(c1cccnc1)N(C(=O)c1cocn1)c1ccc(S(=O)(=O)C2CCCC2)cc1` (centres undefined) and `O=C1CCC(c2ccc(N(C(=O)c3cocn3)C(C(=O)NCCc3cccc(F)c3)c3cccnc3)cc2)N1` (centres undefined) cannot be ordered by IC50: > 99.5 µM for the first, > 99.5 µM for the second.

`CN(Cc1ccccc1Br)c1cc(Cl)cc(CC(=O)Nc2cncc3ccccc23)c1` and `N#Cc1cnn(-c2ccccn2)c1Nc1cc(Cl)cc(CC(=O)Nc2cncc3ccccc23)c1` are within 1.5-fold of each other in IC50: 2.11 µM for the first, 1.72 µM for the second.

`Cc1cnc(Nc2cc(Cl)cc(CC(=O)Nc3cncc4ccccc34)c2)c([N+](=O)[O-])c1` and `COCc1ccc2cncc(NC(=O)Cc3cccc(Cl)c3)c2c1` are within 1.5-fold of each other in IC50: 1.86 µM for the first, 2.21 µM for the second.

Going from `N#Cc1ncc(Br)cn1` to `O=[N+]([O-])c1cnc(Sc2nnc(-c3ccco3)n2-c2ccc(OCc3ccccc3)cc2)s1`, the IC50 falls from > 99.5 µM to 7.3 µM.

Compared with `COc1ccc2nnn(CC(=O)N(Cc3ccccn3)c3ccc(C4CCNCC4)cc3)c2c1`, `CN(C)c1ccc(C(Cc2ccsc2)C(=O)Nc2nnc3ccccn23)cc1` (centres undefined) is higher in IC50: 38.8 µM for the first, > 99.5 µM for the second.

Going from `O=C(NCCc1cccc(F)c1)C(c1cccnc1)N(C(=O)c1cocn1)c1ccc2c(c1)CCC(=O)N2CC(F)F` (centres undefined) to `O=C(NCCc1cccc(F)c1)C(c1cccnc1)N(C(=O)c1cocn1)C1CCC2OCCC2C1` (centres undefined), the IC50 rises from 24.5 µM to > 99.5 µM. The first is the more potent here.

Going from `Cc1ccc(-n2c(C)c(C)n3c4c(=O)n(CCCO)c(=O)n(C)c4nc23)cc1Cl` to `CC(C)(C)c1cnc(N(C(=O)c2ccco2)C(C(=O)NCCc2cccc(F)c2)c2cccnc2)s1` (centres undefined), the IC50 falls from > 99.5 µM to 3.94 µM. The second is the more potent here.

Going from `CC(C)(C)c1ccc(N(C(=O)c2ccco2)C(C(=O)NCCc2cccc(F)c2)c2cc(=O)[nH]c3ccccc23)cc1` (centres undefined) to `O=C(Nc1ccc(Cl)cc1)[C@@H](c1ccccc1)N1Cc2ccccc2C1=O` (stereo in doubt), the IC50 rises from 2.28 µM to > 99.5 µM. The first is the more potent here.

In the case of `Cc1ccncc1NC(=O)Cc1cc(Cl)cc(NC2(C)CCC(F)(F)CC2)c1`, the IC50 is reported as 14.7 µM.

With `Cc1cc(C)c(C)c(S(=O)(=O)N2CCN(C(=O)c3cc(=O)[nH]c4ccccc34)CC2)c1C` the IC50 was 8.19 µM and 8.74 µM.
With `COc1ccc(-c2cc(COc3cc(Cl)cc(CC(=O)Nc4cnccc4C)c3)on2)cc1` the IC50 was 62.7 µM and 81.5 µM.
